Test results: patent publication US8455688B2, “HDAC inhibitors” (Lixte Biotechnology, Inc., priority 2007, dated 2013)
Values after ≈ are worked out from the molar mass of the structure shown. Like-named read-outs stand apart in the source and are kept apart here.

How the values were obtained:
C. albicans = assay: Broth dilution antifungal susceptibility testing, C. albicans; assay type: cell-based, Candida albicans; details: Candida albicans, 50% reduction in turbidity, read-out: minimum inhibitory concentration (MIC)
Experimental: (§1) A total of 23 isolates were tested to include 3 Candida albicans, 3 Candida glabrata, 3 Cryptococcus neoformans, 3 Aspergillus fumigatus, 3 Rhizopus oryzae, 3, Fusarium solani, 3 Pseudallescheria boydii, and 2 […]. All isolates were clinical isolates submitted to the Fungus Testing Laboratory for evaluation. Antifungal susceptibility testing was accomplished according to the methods outlined in the National Committee for Clinical Laboratory Standards, M-27A2, Reference Method for Broth Dilution Antifungal Susceptibility Testing of Yeasts; Approved Standard, and M38-A “Reference Method for Broth Dilution Antifungal Susceptibility Testing of Conidium-Forming Filamentous Fungi; Approved Standard”. This includes testing in RPMI-1640 with glutamine and without bicarbonate, an inoculum size of 0.5-2.5×10^3 for yeasts or […] for moulds, and incubation at 35° C. for 24 and 48 hours. […] Drug concentrations were 0.125-64 μg/ml. A 10 mg portion of each powder was weighed out and added to 1 ml of 100% DMSO for compound 205. The resulting concentration of […] was diluted to a working concentration of 6400 μg/ml for compound 205 in 100% DMSO. All subsequent dilutions were also made using the respective diluents. Final testing concentrations ranged from 0.125-64 μg/ml. The NCCLS recommended medium RPMI-1640 (Hardy Diagnostics, Santa Monica, Calif.) was utilized as the test medium. All isolates in this study were clinical isolates received in the Fungus Testing Laboratory for standard antifungal susceptibility testing and/or identification. Isolates, which were not sent for identification, were confirmed to assure testing integrity. A total of 23 were tested to include 3 Candida albicans, 3 Candida glabrata, 3 Cryptococcus neoformans, 3 Aspergillus fumigatus, 3 Rhizopus oryzae, 3, Fusarium solani, 3 Pseudallescheria boydii, and 2 […]. Minimum inhibitory concentrations (MIC) were determined at the first 24-hour interval where growth could be determined in the drug-free control tube.

C. glabrata = assay: Broth dilution antifungal susceptibility testing, C. glabrata; assay type: cell-based, Candida glabrata; details: Nakaseomyces glabratus, 50% reduction in turbidity, read-out: minimum inhibitory concentration (MIC)
Experimental: as §1

C. neoformans = assay: Broth dilution antifungal susceptibility testing, C. neoformans; assay type: cell-based; details: Cryptococcus neoformans, 50% reduction in turbidity, read-out: minimum inhibitory concentration (MIC)
Experimental: as §1

R. arrhizus = assay: Broth dilution antifungal susceptibility testing, R. arrhizus; assay type: cell-based, Rhizopus oryzae; details: Rhizopus arrhizus, 80% inhibition, read-out: minimum inhibitory concentration (MIC)
Experimental: as §1

F. solani = assay: Broth dilution antifungal susceptibility testing, F. solani; assay type: cell-based; details: Fusarium solani, 80% inhibition, read-out: minimum inhibitory concentration (MIC)
Experimental: as §1

S. apiospermum = assay: Broth dilution antifungal susceptibility testing, S. apiospermum; assay type: cell-based, Pseudallescheria boydii; details: Scedosporium apiospermum, 80% inhibition, read-out: minimum inhibitory concentration (MIC)
Experimental: as §1

A. fumigatus = assay: Broth dilution antifungal susceptibility testing, A. fumigatus; assay type: cell-based, Aspergillus fumigatus; details: Aspergillus fumigatus, 80% inhibition, read-out: minimum inhibitory concentration (MIC)
Experimental: as §1

T. rubrum = assay: Broth dilution antifungal susceptibility testing, T. rubrum; assay type: cell-based, Trichophyton rubrum; details: Trichophyton rubrum, 80% inhibition, read-out: minimum inhibitory concentration (MIC)
Experimental: as §1

MIC (C. albicans; 24 h, isolate 07-3006, 24 hours): 2 µg/mL (≈ 5.59 µM)
MIC (C. albicans; 24 h, isolate 07-3011, 24 hours): 2 µg/mL (≈ 5.59 µM)
MIC (C. albicans; 24 h, isolate 07-3012, 24 hours): 2 µg/mL (≈ 5.59 µM)
MIC (C. albicans; 48 h, isolate 07-3006, 48 hours): 32 µg/mL (≈ 89.5 µM)
MIC (C. albicans; 48 h, isolate 07-3011, 48 hours): 32 µg/mL (≈ 89.5 µM)
MIC (C. albicans; 48 h, isolate 07-3012, 48 hours): 32 µg/mL (≈ 89.5 µM)
MIC (C. glabrata; 24 h, isolate 07-2964, 24 hours): 2 µg/mL (≈ 5.59 µM)
MIC (C. glabrata; 24 h, isolate 07-2965, 24 hours): 2 µg/mL (≈ 5.59 µM)
MIC (C. glabrata; 24 h, isolate 07-3013, 24 hours): 2 µg/mL (≈ 5.59 µM)
MIC (C. glabrata; 48 h, isolate 07-2964, 48 hours): 32 µg/mL (≈ 89.5 µM)
MIC (C. glabrata; 48 h, isolate 07-2965, 48 hours): 32 µg/mL (≈ 89.5 µM)
MIC (C. glabrata; 48 h, isolate 07-3013, 48 hours): 32 µg/mL (≈ 89.5 µM)
MIC (C. neoformans; 24 h, isolate 07-2665, 24 hours): 32 µg/mL (≈ 89.5 µM)
MIC (C. neoformans; 24 h, isolate 07-2737, 24 hours): 8 µg/mL (≈ 22.4 µM)
MIC (C. neoformans; 24 h, isolate 07-2829, 24 hours): 16 µg/mL (≈ 44.8 µM)
MIC (C. neoformans; 48 h, isolate 07-2665, 48 hours): 32 µg/mL (≈ 89.5 µM)
MIC (C. neoformans; 48 h, isolate 07-2737, 48 hours): 16 µg/mL (≈ 44.8 µM)
MIC (C. neoformans; 48 h, isolate 07-2829, 48 hours): 16 µg/mL (≈ 44.8 µM)
MIC (R. arrhizus; 24 h, isolate 07-1870, 24 hours): 2 µg/mL (≈ 5.59 µM)
MIC (R. arrhizus; 24 h, isolate 07-2044, 24 hours): 2 µg/mL (≈ 5.59 µM)
MIC (R. arrhizus; 24 h, isolate 07-2078, 24 hours): > 64 µg/mL
MIC (R. arrhizus; 48 h, isolate 07-1870, 48 hours): > 64 µg/mL
MIC (R. arrhizus; 48 h, isolate 07-2044, 48 hours): > 64 µg/mL
MIC (R. arrhizus; 48 h, isolate 07-2078, 48 hours): > 64 µg/mL
MIC (F. solani; 24 h, isolate 07-1399, 24 hours): > 64 µg/mL
MIC (F. solani; 24 h, isolate 07-1755, 24 hours): > 64 µg/mL
MIC (F. solani; 24 h, isolate 07-1867, 24 hours): > 64 µg/mL
MIC (F. solani; 48 h, isolate 07-1399, 48 hours): > 64 µg/mL
MIC (F. solani; 48 h, isolate 07-1755, 48 hours): > 64 µg/mL
MIC (F. solani; 48 h, isolate 07-1867, 48 hours): > 64 µg/mL
MIC (S. apiospermum; 24 h, isolate 07-1333, 24 hours): 64 µg/mL (≈ 179 µM)
MIC (S. apiospermum; 24 h, isolate 07-1502, 24 hours): 32 µg/mL (≈ 89.5 µM)
MIC (S. apiospermum; 24 h, isolate 07-1601, 24 hours): 8 µg/mL (≈ 22.4 µM)
MIC (S. apiospermum; 48 h, isolate 07-1333, 48 hours): > 64 µg/mL
MIC (S. apiospermum; 48 h, isolate 07-1502, 48 hours): > 64 µg/mL
MIC (S. apiospermum; 48 h, isolate 07-1601, 48 hours): > 64 µg/mL
MIC (A. fumigatus; 24 h, isolate 05-388, 24 hours): 16 µg/mL (≈ 44.8 µM)
MIC (A. fumigatus; 24 h, isolate 06-4126, 24 hours): 16 µg/mL (≈ 44.8 µM)
MIC (A. fumigatus; 24 h, isolate 07-2039, 24 hours): 32 µg/mL (≈ 89.5 µM)
MIC (A. fumigatus; 48 h, isolate 05-388, 48 hours): > 64 µg/mL
MIC (A. fumigatus; 48 h, isolate 06-4126, 48 hours): > 64 µg/mL
MIC (A. fumigatus; 48 h, isolate 07-2039, 48 hours): > 64 µg/mL
MIC (T. rubrum; 24 h, isolate 07-1743, 24 hours): 8 µg/mL (≈ 22.4 µM)
MIC (T. rubrum; 24 h, isolate 07-2055, 24 hours): 8 µg/mL (≈ 22.4 µM)
MIC (T. rubrum; 48 h, isolate 07-1743, 48 hours): 8 µg/mL (≈ 22.4 µM)
MIC (T. rubrum; 48 h, isolate 07-2055, 48 hours): 8 µg/mL (≈ 22.4 µM)
SMILES: Nc1ccc(NC(=O)CCCCCNC(=O)c2ccccc2S)cc1 [Compound 209, 2-Mercapto-N-[5-(4-Aminophenylcarbamoyl)-pentyl]benzamide]
